In ChEMBL document CHEMBL1201862, “PubChem BioAssay data set” (2004):
Active and inactive are the calls of the source.

Experiments:
[1] = molecular target: T1, Replicative DNA helicase DnaB (Mycobacterium tuberculosis, UniProt P9WMR3); experiment: DnaB intein splicing inhibitors, dose response, biochemical, cell-free fluorescence (AID 449749); assay type: functional
T1 sequence (P9WMR3 whole entry): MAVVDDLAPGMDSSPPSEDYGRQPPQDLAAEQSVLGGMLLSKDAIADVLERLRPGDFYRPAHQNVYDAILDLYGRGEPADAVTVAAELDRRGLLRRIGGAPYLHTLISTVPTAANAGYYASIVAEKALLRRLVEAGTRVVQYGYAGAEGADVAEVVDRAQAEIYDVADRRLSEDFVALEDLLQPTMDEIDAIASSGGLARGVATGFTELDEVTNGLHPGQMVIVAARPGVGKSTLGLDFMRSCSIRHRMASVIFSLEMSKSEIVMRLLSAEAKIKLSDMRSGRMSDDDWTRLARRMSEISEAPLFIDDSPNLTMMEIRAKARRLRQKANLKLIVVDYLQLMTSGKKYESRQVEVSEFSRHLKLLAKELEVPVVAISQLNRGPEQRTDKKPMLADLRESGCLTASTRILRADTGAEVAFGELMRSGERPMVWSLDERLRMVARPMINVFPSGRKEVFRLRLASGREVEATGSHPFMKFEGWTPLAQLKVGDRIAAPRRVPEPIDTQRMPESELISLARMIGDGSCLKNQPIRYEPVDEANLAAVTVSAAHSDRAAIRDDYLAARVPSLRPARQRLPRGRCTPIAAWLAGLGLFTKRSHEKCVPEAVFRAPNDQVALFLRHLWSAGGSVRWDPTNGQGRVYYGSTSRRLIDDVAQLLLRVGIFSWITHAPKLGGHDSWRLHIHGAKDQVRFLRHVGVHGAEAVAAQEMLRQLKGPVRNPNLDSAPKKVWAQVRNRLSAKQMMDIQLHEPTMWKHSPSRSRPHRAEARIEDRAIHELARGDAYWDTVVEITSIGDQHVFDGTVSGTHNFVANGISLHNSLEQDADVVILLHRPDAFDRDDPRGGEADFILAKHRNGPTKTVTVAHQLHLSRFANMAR

Protein RecA = molecular target: T2, Protein RecA (Mycobacterium tuberculosis, UniProt P9WHJ3); experiment: Fluorescence Cell-Free Homogeneous Dose Retest to Identify Inhibitors of RecA-Intein Splicing Activity. [Related pubchem assays (depositor defined):AID2097, AID2223, AID489010, AID492950]; assay type: functional
T2 sequence (P9WHJ3 whole entry): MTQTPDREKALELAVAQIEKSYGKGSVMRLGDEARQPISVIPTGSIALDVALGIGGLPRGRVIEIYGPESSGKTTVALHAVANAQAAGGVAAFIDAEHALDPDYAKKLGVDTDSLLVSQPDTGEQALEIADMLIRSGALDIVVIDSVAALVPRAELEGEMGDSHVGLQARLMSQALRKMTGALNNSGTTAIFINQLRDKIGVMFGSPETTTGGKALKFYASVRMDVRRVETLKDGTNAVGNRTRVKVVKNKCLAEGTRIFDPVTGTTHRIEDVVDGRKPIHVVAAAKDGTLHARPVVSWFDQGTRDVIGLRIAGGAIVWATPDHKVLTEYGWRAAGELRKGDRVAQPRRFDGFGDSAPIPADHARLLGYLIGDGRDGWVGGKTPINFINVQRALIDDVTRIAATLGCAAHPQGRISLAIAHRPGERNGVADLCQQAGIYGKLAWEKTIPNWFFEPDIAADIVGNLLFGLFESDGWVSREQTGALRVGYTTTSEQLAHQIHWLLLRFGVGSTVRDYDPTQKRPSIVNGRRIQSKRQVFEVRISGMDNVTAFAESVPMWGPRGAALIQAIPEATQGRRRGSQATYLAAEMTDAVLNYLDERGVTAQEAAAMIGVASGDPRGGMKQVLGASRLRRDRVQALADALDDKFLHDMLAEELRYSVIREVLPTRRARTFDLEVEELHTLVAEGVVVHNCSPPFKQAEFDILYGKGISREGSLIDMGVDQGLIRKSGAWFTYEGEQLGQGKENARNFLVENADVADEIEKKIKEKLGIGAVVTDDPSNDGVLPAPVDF

[2] = molecular target: Serine/threonine-protein kinase DCLK1 (Homo sapiens, UniProt O15075); assay type: functional;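 further: affinity for DCLK1 (listed as DCAMKL1) measured as one member of a kinome-wide kinase profiling panel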
[3] = molecular target: Serine/threonine-protein kinase PLK4 (Homo sapiens, UniProt O00444); assay type: functional;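 further: PLK4 measured as one member of a kinome-wide kinase profiling panel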
[4] = molecular target: Fibroblast growth factor receptor 3 (Homo sapiens, UniProt P22607); assay type: functional
[5] = molecular target: Serine/threonine-protein kinase MRCK alpha (Homo sapiens, UniProt Q5VT25); assay type: functional
[6] = molecular target: STE20-like serine/threonine-protein kinase (Homo sapiens, UniProt Q9H2G2); assay type: functional
[7] = molecular target: Mitogen-activated protein kinase kinase kinase 20 (Homo sapiens, UniProt Q9NYL2); assay type: functional
[8] = molecular target: Serine/threonine-protein kinase PLK3 (Homo sapiens, UniProt Q9H4B4); assay type: functional
[9] = molecular target: Ribosomal protein S6 kinase beta-1 (Homo sapiens, UniProt P23443); assay type: functional;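 further: measured as one member of a kinome-wide profiling panel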
[10] = molecular target: Lymphokine-activated killer T-cell-originated protein kinase (Homo sapiens, UniProt Q96KB5); assay type: functional;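 further: value comes from a kinase panel screen in which TOPK was one of the panel members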
[11] = molecular target: Protein kinase C zeta type (Homo sapiens, UniProt Q05513); assay type: functional;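 further: measured as one member of a broad kinase profiling panel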
[12] = molecular target: Cyclin-dependent kinase 5 (Homo sapiens, UniProt Q00535); assay type: functional;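 further: CDK5 measured as one member of a kinase profiling panel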
[13] = molecular target: Mast/stem cell growth factor receptor Kit (Homo sapiens, UniProt P10721); assay type: functional;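 further: KIT entry within a kinase panel assay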
[14] = molecular target: MAP kinase-interacting serine/threonine-protein kinase 2 (Homo sapiens, UniProt Q9HBH9); assay type: functional
[15] = molecular target: Cyclin-dependent kinase 2 (Homo sapiens, UniProt P24941); assay type: functional;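 further: CDK2 measured as one member of a broad kinome profiling panel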
[16] = molecular target: Protein kinase C gamma type (Homo sapiens, UniProt P05129); assay type: functional
[17] = molecular target: Proto-oncogene tyrosine-protein kinase Src (Homo sapiens, UniProt P12931); assay type: functional;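 further: SRC entry within a kinome-wide kinase profiling panel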
[18] = molecular target: Tyrosine-protein kinase FRK (Homo sapiens, UniProt P42685); assay type: functional;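 further: FRK tested as one member of a kinome panel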
[19] = molecular target: Serine/threonine-protein kinase D2 (Homo sapiens, UniProt Q9BZL6); assay type: functional;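 further: measured against PRKD2 as one member of a kinome-wide kinase profiling panel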
[20] = control 3'UTR Renilla luciferase suppression, dose response, counter-screen for Shn3 inhibitor project, cell-based, Clone20-Shn3RL, cherry-picked (AID 624133); assay type: functional
[21] = NIH-3T3 fibroblast cytotoxicity, dose response, cytotoxicity control, cell-based, fluorescence, Alamar Blue, secondary assay (AID 2327); assay type: functional;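 further: NIH-3T3 mouse fibroblasts cultured with fluconazole at 8 µg/mL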
cells = assay type: functional, cell-based

Cyclin-dependent kinase 5, sequence (Q00535 whole entry): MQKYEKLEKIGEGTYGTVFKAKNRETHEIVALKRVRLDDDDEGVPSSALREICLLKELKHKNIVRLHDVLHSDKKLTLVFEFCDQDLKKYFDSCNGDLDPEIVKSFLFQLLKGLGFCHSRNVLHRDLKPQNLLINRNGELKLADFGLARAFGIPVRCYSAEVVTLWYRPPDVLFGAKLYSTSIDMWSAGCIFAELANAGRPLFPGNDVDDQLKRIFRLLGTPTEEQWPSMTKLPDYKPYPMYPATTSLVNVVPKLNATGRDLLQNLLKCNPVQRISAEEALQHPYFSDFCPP
Serine/threonine-protein kinase PLK4, sequence (O00444 whole entry): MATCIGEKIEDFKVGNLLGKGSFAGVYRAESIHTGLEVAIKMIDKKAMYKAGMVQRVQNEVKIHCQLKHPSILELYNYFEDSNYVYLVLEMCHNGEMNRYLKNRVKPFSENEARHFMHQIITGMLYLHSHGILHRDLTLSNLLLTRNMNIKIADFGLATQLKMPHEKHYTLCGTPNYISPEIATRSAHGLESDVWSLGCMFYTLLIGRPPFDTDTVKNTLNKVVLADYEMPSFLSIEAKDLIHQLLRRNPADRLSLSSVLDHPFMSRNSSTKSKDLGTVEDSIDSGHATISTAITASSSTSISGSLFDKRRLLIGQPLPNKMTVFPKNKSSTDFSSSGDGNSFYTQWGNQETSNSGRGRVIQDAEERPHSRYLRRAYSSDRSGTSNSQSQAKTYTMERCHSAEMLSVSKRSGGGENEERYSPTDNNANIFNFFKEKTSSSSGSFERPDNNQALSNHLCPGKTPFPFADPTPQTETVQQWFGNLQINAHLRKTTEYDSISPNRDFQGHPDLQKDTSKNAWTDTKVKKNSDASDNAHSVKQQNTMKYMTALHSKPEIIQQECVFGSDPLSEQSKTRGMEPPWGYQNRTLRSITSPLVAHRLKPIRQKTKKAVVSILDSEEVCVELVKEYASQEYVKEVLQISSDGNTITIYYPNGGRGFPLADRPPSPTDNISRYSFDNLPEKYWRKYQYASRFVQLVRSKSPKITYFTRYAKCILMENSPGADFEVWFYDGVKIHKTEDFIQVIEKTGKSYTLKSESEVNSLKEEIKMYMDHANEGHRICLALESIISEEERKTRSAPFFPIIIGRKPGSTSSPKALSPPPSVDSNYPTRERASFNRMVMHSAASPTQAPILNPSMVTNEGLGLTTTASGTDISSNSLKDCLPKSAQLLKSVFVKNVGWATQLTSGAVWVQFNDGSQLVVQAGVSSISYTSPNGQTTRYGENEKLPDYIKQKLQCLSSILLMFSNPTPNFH
Mitogen-activated protein kinase kinase kinase 20, sequence (Q9NYL2 whole entry): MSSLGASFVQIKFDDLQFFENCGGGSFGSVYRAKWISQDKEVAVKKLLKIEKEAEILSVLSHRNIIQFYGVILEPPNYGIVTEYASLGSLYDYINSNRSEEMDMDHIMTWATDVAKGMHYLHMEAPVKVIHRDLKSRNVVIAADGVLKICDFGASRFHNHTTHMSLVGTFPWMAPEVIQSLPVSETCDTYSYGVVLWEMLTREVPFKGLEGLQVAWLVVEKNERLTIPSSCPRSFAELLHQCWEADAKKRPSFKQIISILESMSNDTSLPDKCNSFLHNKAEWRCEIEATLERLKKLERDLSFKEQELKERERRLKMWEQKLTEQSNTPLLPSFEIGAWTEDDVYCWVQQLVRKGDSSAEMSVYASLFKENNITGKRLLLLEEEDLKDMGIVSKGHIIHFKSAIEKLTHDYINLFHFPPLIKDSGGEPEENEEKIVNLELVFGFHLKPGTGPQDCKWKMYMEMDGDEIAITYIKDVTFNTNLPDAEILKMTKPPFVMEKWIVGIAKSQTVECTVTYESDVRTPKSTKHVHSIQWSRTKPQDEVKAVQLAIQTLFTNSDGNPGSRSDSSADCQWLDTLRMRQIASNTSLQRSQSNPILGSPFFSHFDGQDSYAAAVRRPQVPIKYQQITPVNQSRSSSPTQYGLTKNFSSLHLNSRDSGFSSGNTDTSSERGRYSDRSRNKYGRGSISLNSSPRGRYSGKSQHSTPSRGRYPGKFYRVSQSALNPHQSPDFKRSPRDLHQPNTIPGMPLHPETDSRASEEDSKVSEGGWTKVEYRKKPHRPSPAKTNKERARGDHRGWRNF
Serine/threonine-protein kinase D2, sequence (Q9BZL6 whole entry): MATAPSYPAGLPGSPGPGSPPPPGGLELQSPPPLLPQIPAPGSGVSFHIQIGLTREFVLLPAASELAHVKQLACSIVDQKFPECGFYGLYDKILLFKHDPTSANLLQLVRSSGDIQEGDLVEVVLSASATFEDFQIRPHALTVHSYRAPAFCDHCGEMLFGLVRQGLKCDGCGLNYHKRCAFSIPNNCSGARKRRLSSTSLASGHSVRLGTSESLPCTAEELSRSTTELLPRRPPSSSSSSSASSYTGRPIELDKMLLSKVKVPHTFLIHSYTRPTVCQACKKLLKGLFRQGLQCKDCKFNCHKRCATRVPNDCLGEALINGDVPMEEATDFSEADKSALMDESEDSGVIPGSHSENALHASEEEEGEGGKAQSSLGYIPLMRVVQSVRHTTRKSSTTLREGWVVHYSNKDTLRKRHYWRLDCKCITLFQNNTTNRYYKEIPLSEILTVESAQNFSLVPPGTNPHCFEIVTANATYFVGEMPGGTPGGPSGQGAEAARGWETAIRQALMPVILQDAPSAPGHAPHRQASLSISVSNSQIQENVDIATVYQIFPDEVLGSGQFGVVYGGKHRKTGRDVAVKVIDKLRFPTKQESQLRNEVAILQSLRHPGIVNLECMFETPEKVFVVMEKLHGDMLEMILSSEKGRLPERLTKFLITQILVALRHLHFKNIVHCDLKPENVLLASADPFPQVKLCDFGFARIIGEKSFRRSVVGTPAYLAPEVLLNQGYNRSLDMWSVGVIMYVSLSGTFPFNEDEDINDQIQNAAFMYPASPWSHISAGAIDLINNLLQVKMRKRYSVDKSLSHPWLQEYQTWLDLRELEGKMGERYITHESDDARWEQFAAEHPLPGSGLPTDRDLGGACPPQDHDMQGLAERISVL
Tyrosine-protein kinase FRK, sequence (P42685 whole entry): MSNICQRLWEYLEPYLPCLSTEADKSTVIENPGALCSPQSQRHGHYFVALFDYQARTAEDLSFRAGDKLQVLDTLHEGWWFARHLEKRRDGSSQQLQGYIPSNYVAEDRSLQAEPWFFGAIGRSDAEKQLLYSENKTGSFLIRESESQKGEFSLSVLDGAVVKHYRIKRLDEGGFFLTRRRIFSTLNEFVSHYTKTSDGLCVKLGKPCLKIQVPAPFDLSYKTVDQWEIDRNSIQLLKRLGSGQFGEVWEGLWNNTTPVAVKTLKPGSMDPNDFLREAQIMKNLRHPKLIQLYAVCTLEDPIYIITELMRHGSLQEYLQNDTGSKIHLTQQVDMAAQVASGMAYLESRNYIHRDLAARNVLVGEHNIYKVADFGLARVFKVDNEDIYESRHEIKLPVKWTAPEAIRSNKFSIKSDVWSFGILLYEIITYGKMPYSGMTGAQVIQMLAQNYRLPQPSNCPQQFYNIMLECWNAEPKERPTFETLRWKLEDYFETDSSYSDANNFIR
Mast/stem cell growth factor receptor Kit, sequence (P10721 whole entry): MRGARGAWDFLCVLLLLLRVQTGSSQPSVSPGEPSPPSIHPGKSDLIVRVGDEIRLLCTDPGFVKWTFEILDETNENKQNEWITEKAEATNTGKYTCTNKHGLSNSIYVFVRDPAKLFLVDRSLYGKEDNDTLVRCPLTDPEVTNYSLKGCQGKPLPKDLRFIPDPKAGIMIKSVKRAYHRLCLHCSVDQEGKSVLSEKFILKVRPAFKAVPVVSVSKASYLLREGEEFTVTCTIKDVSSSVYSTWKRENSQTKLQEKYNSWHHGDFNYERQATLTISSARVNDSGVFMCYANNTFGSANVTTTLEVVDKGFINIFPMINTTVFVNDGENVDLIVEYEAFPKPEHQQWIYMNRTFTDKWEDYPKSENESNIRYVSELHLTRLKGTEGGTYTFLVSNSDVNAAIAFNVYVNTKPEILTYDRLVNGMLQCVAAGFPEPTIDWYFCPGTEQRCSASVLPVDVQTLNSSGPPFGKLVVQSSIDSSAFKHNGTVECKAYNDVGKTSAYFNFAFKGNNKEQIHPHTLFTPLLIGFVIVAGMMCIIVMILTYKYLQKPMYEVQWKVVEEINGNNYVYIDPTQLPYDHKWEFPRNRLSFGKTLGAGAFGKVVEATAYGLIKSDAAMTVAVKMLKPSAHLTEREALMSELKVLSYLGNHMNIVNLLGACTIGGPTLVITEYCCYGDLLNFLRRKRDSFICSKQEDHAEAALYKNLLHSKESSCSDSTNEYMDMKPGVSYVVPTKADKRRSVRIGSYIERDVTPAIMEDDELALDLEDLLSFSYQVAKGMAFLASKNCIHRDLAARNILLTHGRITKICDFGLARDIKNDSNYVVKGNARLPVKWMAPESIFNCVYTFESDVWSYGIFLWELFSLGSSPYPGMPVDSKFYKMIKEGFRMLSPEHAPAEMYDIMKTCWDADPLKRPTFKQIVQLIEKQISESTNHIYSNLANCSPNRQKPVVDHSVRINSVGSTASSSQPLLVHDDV
Serine/threonine-protein kinase PLK3, sequence (Q9H4B4 whole entry): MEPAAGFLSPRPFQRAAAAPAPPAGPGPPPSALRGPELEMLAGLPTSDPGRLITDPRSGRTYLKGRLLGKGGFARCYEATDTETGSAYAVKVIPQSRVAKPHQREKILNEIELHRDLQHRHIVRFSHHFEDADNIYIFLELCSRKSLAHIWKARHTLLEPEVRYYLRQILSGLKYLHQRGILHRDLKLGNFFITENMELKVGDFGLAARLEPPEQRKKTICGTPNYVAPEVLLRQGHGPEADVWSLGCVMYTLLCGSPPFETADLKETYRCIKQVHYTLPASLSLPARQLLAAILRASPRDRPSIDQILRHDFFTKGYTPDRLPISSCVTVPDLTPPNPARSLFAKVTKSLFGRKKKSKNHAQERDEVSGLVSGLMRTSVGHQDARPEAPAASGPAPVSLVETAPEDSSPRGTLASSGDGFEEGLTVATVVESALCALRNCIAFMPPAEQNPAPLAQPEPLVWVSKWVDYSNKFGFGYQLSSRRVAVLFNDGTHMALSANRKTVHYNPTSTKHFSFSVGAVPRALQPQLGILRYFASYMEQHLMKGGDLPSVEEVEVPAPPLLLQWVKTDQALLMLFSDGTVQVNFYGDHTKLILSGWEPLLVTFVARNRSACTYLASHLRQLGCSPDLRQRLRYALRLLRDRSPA

For OCC[n+]1c2ccccc2nc2ccc(N3CCOCC3)cc21, which AC50 [1] is on record?
The AC50 was > 380000 nM (inactive).

What about the EC50 (Protein RecA) of the same molecule?
The EC50 was > 120000 nM (inconclusive).

For CS(=O)(=O)N(Cc1ccc2[nH]c(=O)c3cccn3c2c1)C1CC1, which Ki [2] is on record?
The Ki was > 10000 nM (inactive).

And the Ki [3]?
The Ki was 251 nM (active).

What about the Ki [4] of the same molecule?
The Ki was > 2000 nM (inactive).

What about the Ki [5] of the same molecule?
Its Ki is 2000 nM (active).

What about the Ki [6] of the same molecule?
Its Ki is > 10000 nM (inactive).

And the Ki [7]?
The Ki was 251 nM (active).

What about the Ki [8] of the same molecule?
The Ki was 15.8 nM (active).

What about the Ki [9] of the same molecule?
Its Ki is > 6310 nM (inactive).

What about the Ki [10] of the same molecule?
Its Ki is 2000 nM (active).

And the Ki [11]?
Its Ki is > 7940 nM (inactive).

What about the Ki [12] of the same molecule?
The Ki was > 6310 nM (inactive).

What about the Ki [13] of the same molecule?
The Ki was 251 nM (active).

And the Ki [14]?
The Ki was 794 nM (active).

And the Ki [15]?
The Ki was > 7940 nM (inactive).

What about the Ki [16] of the same molecule?
Its Ki is 1260 nM (active).

What about the Ki [17] of the same molecule?
The Ki was 1260 nM (active).

What about the Ki [18] of the same molecule?
Its Ki is > 2510 nM (inactive).

What about the Ki [19] of the same molecule?
The Ki was 200 nM (active).

Which results are given for Cc1cc(NC(c2ccc(Cl)cc2)c2ccc3cccnc3c2O)no1 (stereo not drawn)?
AC50 [20]: 677 nM (active); EC50 [21]: 22000 nM (active); EC50 (cells): 6450 nM (active)
